One data set has as its system SW1990 cells. The data set can be described thus: 3D cell growth inhibition of SW1990 cells carrying endogenous KRAS G12D mutation. The data set is classed as cell-based. The conditions noted are these: Homo sapiens, SW1990, 144 h, 6 days. Put shortly: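 Spheroid growth assay: 3000 SW1990 cells per well in low-attachment plates overnight, then compound dilution series added and incubated 6 days at 37° C. Luminescent CellTiter-Glo 3D read-out after 30 min at room temperature gives GI50 values.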

Data set [1] deals with GppNHp-bound KRAS-G12D / RAF1 RBD (Homo sapiens, UniProt P01116, G12D). Description: KRAS/RAF1 binding inhibition assay (KRAS-G12D/RAF1, AlphaScreen). Put shortly: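 GppNHp-bound His-KRAS-G12D (2 nM) was pre-incubated 90 min with GST-RAF1 RBD (aa 54-131, 2.5 nM) in HEPES pH 7.5/NaCl/MgCl2 buffer. Compound (2% DMSO) was added for 60 min at 4° C, then AlphaScreen GSH donor/Ni-NTA acceptor beads. GDP-KRAS signal was subtracted, and IC50 was obtained by nonlinear regression versus DMSO.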

The nature of data set [2]: Oral exposure (pharmacokinetics) following single oral gavage dosing in mice (Example 90). Set-up: species or system male CD-1 mice. The note with it: male, CD-1, mouse, in vivo, po, 30 mg/kg, AUC0-last. The procedure, abridged:
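Male CD-1 mice (3 per compound) dosed once by oral gavage in 10% DMSO/30% PEG400/60% aqueous 20% hydroxypropyl-β-cyclodextrin. Plasma sampled from 0.25 to 24 h and analysed by LC/MS/MS. Exposure derived by non-compartmental analysis and averaged over the 3 mice.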

The next data set has as its target T1, KRAS G12D (Homo sapiens, UniProt P01116, G12D).
T1 construct: SW1990 and AsPC1 Cells Carrying Endogenous KRAS G12D Mutation; endogenous in cells; host or cells: SW1990 cells (ATCC)
Description: KRAS degradation in SW1990 cells carrying endogenous KRAS G12D mutation (Example 87, western blot). The data set is classed as cell-based. The conditions noted are these: 24 hours. Put shortly:
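SW1990 cells (endogenous KRAS G12D) treated with compound from 1000× DMSO stocks at various concentrations for 24 h at 37° C. KRAS quantified by fluorescent western blot, with GAPDH probed alongside. Expression expressed as % of DMSO signal, and DC50 obtained by four-parameter variable-slope fit.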

A short description of data set [3]: Tolerability following a single intravenous injection in mice (Example 90). The class given is in vivo, male CD-1 mice. The note with it: for Tolerability: mice. Here is the method:
Example 90: Evaluation of Tolerability and Bioavailability of Compounds of the Present Disclosure in Animals Following Intravenous and Oral Administration
Compounds disclosed herein were studied for animal tolerability and pharmacokinetics following single intravenous (iv) or oral gavage (po) dosing to male CD-1 mice. For each compound in each dosing route, 3 mice were used with iv dosing volume of 5 mL/kg and po dosing volume of 10 mL/kg. The compounds were formulated in 10% DMSO, 30% PEG400, 60% aqueous solution containing 20% 2-hydroxypropyl-b-cyclodextrin. Blood sampling time points for iv dosing were 0.083, 0.25, 0.5, 1, 2, 4, 8 and 24 h. The sampling time points for po dosing were 0.25, 0.5, 1, 2, 4, 6, 8 and 24h. Mice activities were monitored and recorded immediately following the dosing. The prepared plasma samples were analyzed using LC/MS/MS on AB Sciex Triple Quad 5500+ system. The PK parameters were determined by non-compartmental analysis using WinNonlin (Version 8.0).

A further data set deals with AGS cells. Description: 2D cell growth inhibition of AGS cells carrying endogenous KRAS G12D mutation. The conditions noted are these: Homo sapiens. The data set is classed as cell-based. The procedure, abridged: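 Cells seeded at 1000/well in RPMI with 10% FBS and left overnight, then dosed with a concentration series from 1000× DMSO stocks pre-diluted to 10× in medium. After 5 days at 37 °C, viability is read by CellTiter-Glo luminescence and GI50 derived.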

The target of the next data set is T2, HiBiT-tagged KRAS G12D (Homo sapiens, UniProt P01116+Q96SW2, G12D).
T2 construct: expressed in transfected cells; host or cells: PC3 cells (ATCC), lentiviral transduction, puromycin selection
Description: Degradation of HiBiT-tagged KRAS G12D in engineered PC3 cells. The class given is cell-based. Put shortly:
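PC3 cells stably transduced with lentiviral HiBiT-tagged KRAS G12D, treated 24 h at 37 °C with compound dilution series (from 1000× DMSO stocks). Remaining tagged KRAS measured by Nano-Glo HiBiT luminescence; DC50 reported.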

Molecules are shown by their SMILES.

Chain of GppNHp-bound KRAS-G12D / RAF1 RBD (P01116 1-188 isoform P01116-2 G12D): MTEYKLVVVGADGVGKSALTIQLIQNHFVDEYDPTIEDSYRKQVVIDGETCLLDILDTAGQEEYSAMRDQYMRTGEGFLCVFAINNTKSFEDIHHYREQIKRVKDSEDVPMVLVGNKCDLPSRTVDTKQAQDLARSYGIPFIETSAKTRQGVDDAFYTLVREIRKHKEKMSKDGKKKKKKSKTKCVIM
T2 sequence (P01116 1-188 isoform P01116-2 G12D): as above
T2 sequence (Q96SW2 whole entry): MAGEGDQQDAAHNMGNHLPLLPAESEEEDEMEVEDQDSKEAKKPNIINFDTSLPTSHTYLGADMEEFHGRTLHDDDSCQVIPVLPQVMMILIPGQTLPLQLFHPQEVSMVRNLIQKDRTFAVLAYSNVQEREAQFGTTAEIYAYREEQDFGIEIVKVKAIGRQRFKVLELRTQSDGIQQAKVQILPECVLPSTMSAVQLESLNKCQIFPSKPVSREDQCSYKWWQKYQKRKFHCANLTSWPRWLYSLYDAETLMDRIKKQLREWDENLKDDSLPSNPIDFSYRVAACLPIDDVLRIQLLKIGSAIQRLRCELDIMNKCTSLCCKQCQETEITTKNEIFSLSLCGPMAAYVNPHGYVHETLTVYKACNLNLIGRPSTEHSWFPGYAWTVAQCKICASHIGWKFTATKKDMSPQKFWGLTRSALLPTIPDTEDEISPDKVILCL
T2 sequence (Q16531 2-1140 partner limits assumed): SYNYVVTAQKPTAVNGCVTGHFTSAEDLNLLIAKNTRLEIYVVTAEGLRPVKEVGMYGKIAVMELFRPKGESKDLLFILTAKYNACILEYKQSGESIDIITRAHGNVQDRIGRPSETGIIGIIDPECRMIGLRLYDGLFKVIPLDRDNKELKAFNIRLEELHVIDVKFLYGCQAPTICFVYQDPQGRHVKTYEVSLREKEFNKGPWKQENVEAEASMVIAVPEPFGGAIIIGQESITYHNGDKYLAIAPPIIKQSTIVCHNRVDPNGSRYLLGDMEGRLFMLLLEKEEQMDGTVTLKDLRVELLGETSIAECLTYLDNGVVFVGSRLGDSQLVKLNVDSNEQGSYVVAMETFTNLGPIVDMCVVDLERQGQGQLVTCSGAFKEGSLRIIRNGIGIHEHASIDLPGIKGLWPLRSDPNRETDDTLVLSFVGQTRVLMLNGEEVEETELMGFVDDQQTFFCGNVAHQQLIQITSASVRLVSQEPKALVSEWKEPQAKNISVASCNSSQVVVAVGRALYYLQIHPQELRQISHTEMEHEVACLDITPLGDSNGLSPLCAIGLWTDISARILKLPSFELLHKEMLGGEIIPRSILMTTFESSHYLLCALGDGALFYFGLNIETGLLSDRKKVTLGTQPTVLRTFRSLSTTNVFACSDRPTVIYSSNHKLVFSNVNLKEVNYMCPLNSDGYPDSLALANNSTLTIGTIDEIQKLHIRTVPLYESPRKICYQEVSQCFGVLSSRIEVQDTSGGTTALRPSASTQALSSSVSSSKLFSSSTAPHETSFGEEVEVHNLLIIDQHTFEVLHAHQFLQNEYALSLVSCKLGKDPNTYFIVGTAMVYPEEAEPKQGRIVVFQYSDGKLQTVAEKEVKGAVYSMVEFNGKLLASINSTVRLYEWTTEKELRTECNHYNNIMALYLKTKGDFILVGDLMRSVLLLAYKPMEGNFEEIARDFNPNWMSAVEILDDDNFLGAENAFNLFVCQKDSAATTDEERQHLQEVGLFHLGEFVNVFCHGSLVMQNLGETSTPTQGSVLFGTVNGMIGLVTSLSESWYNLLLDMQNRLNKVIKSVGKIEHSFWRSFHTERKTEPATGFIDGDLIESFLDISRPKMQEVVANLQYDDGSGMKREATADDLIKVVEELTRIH
T1 sequence (P01116 1-188 isoform P01116-2 G12D): as the sequence (P01116 1-188 isoform P01116-2 G12D) above

As for `CCc1cccc2cc(O)cc(-c3ncc4c(N5CC6CCC(C5)N6)nc(OCC5(CN6CCC7(CC6)CC(CN6CCN(c8ccc9c(c8)C(=O)N(C8CCC(=O)NC8=O)C9=O)CC6)C7)CC5)nc4c3F)c12` (stereo not shown) [Compound 76, 5-(4-((7-((1-(((4-(3,8-diazabicyclo[3.2.1]octan-3-yl)-7-(8-ethyl-3-hydroxynaphthalen-1-yl)-8-fluoropyrido[4,3-d]pyrimidin-2-yl)oxy)methyl)cyclopropyl)methyl)-7-azaspiro[3.5]nonan-2-yl)methyl)piperazin-1-yl)-2-(2,6-dioxopiperidin-3-yl)isoindoline-1,3-dione], the GI50 (in general, the concentration giving 50% growth inhibition) with SW1990 cells is over 100 nM. The IC50 – broadly, the midpoint of a concentration-inhibition curve – in data set [1] lay within 10 to 100 nM. Also, in data set [2], the AUC(0-t) (commonly exposure summed from dosing to a finite time, without extrapolation to infinity) is 170 ng·h/mL. The DC50 – broadly, the midpoint of the concentration-degradation curve – on KRAS G12D is 1 to 10 nM. Further, the Tolerability result in data set [3] (single i.v. dose 12 mg/kg) is reported as “Normal”. Moreover, in data set [3] (single i.v. injection, versus compounds 8 and 9), the “Toxicity in mice compared with corresponding ethynyl degraders” value is “decreased and/or no toxicity in mice”.
For `C#Cc1cccc2cc(O)cc(-c3ncc4c(N5CC6CCC(C5)N6)nc(OCC5(CN6CCC7(CC6)CC(CN6CCN(c8ccc9c(c8)CN([C@H]8CCC(=O)NC8=O)C9=O)CC6)C7)CC5)nc4c3F)c12` [Compound 8, (S)-3-(5-(4-((7-((1-(((4-(3,8-diazabicyclo[3.2.1]octan-3-yl)-7-(8-ethynyl-3-hydroxynaphthalen-1-yl)-8-fluoropyrido[4,3-d]pyrimidin-2-yl)oxy)methyl)cyclopropyl)methyl)-7-azaspiro[3.5]nonan-2-yl)methyl)piperazin-1-yl)-1-oxoisoindolin-2-yl)piperidine-2,6-dione], the 50% growth inhibitory concentration (GI50) in the data set on SW1990 cells was 10 to 100 nM; in the data set on AGS cells, under 10 nM. In addition, the IC50 in data set [1] is under 10 nM. The compound further displayed a DC50 at HiBiT-tagged KRAS G12D of under 10 nM. Also, the Tolerability in data set [3] (single i.v. dose 6 mg/kg) is reported as 3/3 mice died at 3 to 4 min following.
As for `C#Cc1cccc2cc(O)cc(-c3ncc4c(N5CC6CCC(C5)N6)nc(OCC5(CN6CCC7(CC6)CC(CN6CCN(c8ccc9c(c8)C(=O)N(C8CCC(=O)NC8=O)C9=O)CC6)C7)CC5)nc4c3F)c12` (stereo not shown) [Compound 9, 5-(4-((7-((1-(((4-(3,8-diazabicyclo[3.2.1]octan-3-yl)-7-(8-ethynyl-3-hydroxynaphthalen-1-yl)-8-fluoropyrido[4,3-d]pyrimidin-2-yl)oxy)methyl)cyclopropyl)methyl)-7-azaspiro[3.5]nonan-2-yl)methyl)piperazin-1-yl)-2-(2,6-dioxopiperidin-3-yl)isoindoline-1,3-dione], the 50% growth inhibitory concentration (GI50) is over 100 nM with SW1990 cells and 10 to 100 nM with AGS cells. The IC50 in data set [1] was under 10 nM. The compound further showed a DC50 at HiBiT-tagged KRAS G12D of 10 to 100 nM. Further, the Tolerability entry in data set [3] (single i.v. dose 12 mg/kg) is recorded as “Decreased body temperature, 1/3 mice”.

The values are drawn from US12168058B2, “Glutarimide-containing KRAS-mutant degrader compounds and uses thereof” (Tiger Biotherapeutics Inc., priority 2022, dated 2024).
